Read-outs that look alike come from different tables or passages of the source.
Assays:
Format in all cases: cell-based
[1] = Cytotoxicity (CC50) in RAW 264.7 macrophages; conditions: mouse
Description: (§1) This experiment was conducted according the reported procedure.

[2] = tested on: LPS-induced nitric oxide (NO) production in RAW264.7 macrophages; assay: Inhibition of LPS-induced NO production in RAW264.7 macrophages (anti-inflammatory assay); conditions: LPS-stimulated, read-out: IC50 (μM), anti-inflammatory activity against LPS-stimulated NO production
Description: All isolates were evaluated for their anti-inflammatory activities against LPS-induced NO production in RAW264.7 macrophages (Table 3). […] This experiment was conducted according the reported procedure.

[3] = tested on: RAW 264.7 macrophages; assay: Cytotoxicity (CC50) in RAW 264.7 macrophages
Description: as §1

[4] = Mus musculus, RAW264.7, RAW 264.7 macrophages

Row | IC50 [2, 4] [µM] | IC50 ([2]; RAW 264.7 macrophages) [µM] | SMILES | CC50 [1] [µM] | CC50 [3] [µM]
1 | 138 | – | C=C(C)C1CCC(C)(O)C2C(O)CC(C)C2C1 [Compound 5, (1S,2S,4S,5S,7R,10R)-11(13)-en-2,10-dihydroxyguaiene] | > 50 | –
2 | 88.2 | – | C[C@H]1CC[C@@H]2[C@H]1C[C@H]([C@@](C)(O)CO)C[C@@H](O)[C@@]2(C)O [Compound 13, (1R,4S,5S,7S,9R,10S,11R)-guaiane-9,10,11,12-tetraol] | > 50 | –
3 | 101 | – | CC(=O)OCC(C)(O)C1CCC(C)(O)C2C(O)CC(C)C2C1 [Compound 7, (1S,2S,4S,5S,7R,10R,11R)-12-acetyl-2,10,11-trihydroxyguaiane] | > 50 | –
4 | 141 | – | C[C@H]1CC[C@@H]2[C@H]1C[C@H]([C@](C)(O)CO)CC[C@@]2(C)O [Compound 11, (1R,4S,5S,7R,10R,11S)-guaiane-10,11,12-triol] | > 50 | –
5 | 150 | – | C[C@H]1C[C@H](O)[C@@H]2[C@H]1C[C@H]([C@@](C)(O)CO)CC[C@@]2(C)O [Compound 10, (1S,2S,4S,5S,7R,10R)-guaiane-2,10,11,12-tetraol] | > 50 | –
6 | 122 | – | C[C@@H]1[C@@H]2C[C@H]([C@](C)(O)CO)CC[C@@](C)(O)[C@@H]2C[C@@H]1O [Compound 12, (1R,3S,4R,5S,7R,10R,11S)-guaiane-3,10,11,12-tetraol] | > 50 | –
7 | 14.2 | – | C=C(CO)[C@@H]1CC[C@@](C)(O)[C@H]2[C@@H](C1)[C@@H](C)C[C@@H]2O [Compound 6, (1S,2S,4S,5S,7R,10R)-11(13)-en-2,10,12-trihydroxyguaiene] | > 50 | –

More lines, now with the values behind:

Row | SMILES | IC50 [2, 4] [µM] | IC50 ([2]; RAW 264.7 macrophages) [µM] | CC50 [1] [µM] | CC50 [3] [µM]
8 | C=C(C)C1CCC(C)(O)C2CC(O)C(C)C2C1 [Compound 1, (1R,3R,4R,5S,7R,10R)-11(13)-en-3,10-dihydroxyguaiene] | – | 310 | > 50 | –
9 | C=C(C)[C@@H]1CC[C@@](C)(O)[C@@H]2CC(=O)[C@H](C)[C@H]2C1 [Compound 4, (1R,4S,5S,7R,10R)-3-oxo-11(13)-en-10-hydroxyguaiene] | 72.9 | – | > 50 | –
10 | C=C(C)C1CCC(C)(O)C2CC(O)C(C)C2C1 [Compound 3, (1R,3S,4R,5R,7R,10R)-11(13)-en-3,10-dihydroxyguaiene] | – | 113 | – | > 50
11 | C=C(C)C1CCC(C)(O)C2CCC(C)C2C1 [Compound 2, (1R,4S,5S,7R,10R)-11(13)-en-10-hydroxyguaiene] | 103 | – | > 50 | –
12 | C[C@H]1CC[C@@H]2[C@H]1C[C@H]([C@@H](C)C(=O)O)CC[C@@]2(C)O [Compound 9, (1R,4S,5S,7R,10R,11R)-10-hydroxyguai-12-oic acid] | 79.1 | – | > 50 | –
13 | N=C(N)NN [Aminoguanidine, aminoguanidine, reference compound] | – | 23.4 | – | > 50
14 | C[C@](O)(CO)[C@@H]1CC[C@@](C)(O)[C@@H]2CC[C@@](C)(O)[C@@H]2C1 [Compound 8, (1R,4R,5R,7R,10R)-4,10,11-trihydroxyguaiane] | 166 | – | > 50 | –

Reference: article PMC5765142, “New anti-inflammatory guaianes from the Atlantic hydrotherm-derived fungus Graphostroma sp. MCCC 3A00421” (Scientific Reports, 2018)
